For 21 compounds, IC50 results are on record in patent publication US20240391931A1 (Bristol-Myers Squibb Company, priority 2021, published 2024).

SMILES strings stand for the structures.

One test has as its target T1, HER2 WT (Homo sapiens, UniProt P04626).
T1 construct: purchased ProQinase, Freiburg, Germany ERBB2 0108-0000-1
The test can be described thus: Enzymatic assay HER2 WT (method a). It is filed as biochemical. To be noted: [HER2 WT]=12.5 nM, [ATP]=25 μM, [Peptide 22]=1 μM. Summed up: (§1)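 Initial rates over 0–3600 s, read as substrate-to-product conversion by capillary electrophoresis, were converted to percent inhibition and fitted with a variable-slope curve to give IC50. Conditions: EGFR WT 2 nM with 1 mM ATP; HER2 YVMA 5 nM or HER2 WT 12.5 nM, each with 25 μM ATP. All used 1 μM Peptide 22 in pH 7.5 HEPES/Mn/Mg buffer.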

For another test, the target named is T2, EGFR WT (Homo sapiens, UniProt P00533).
T2 construct: purchased Thermo Fisher, Carlsbad, CA ERBB1 PR7295B
T2 sequence (P00533 25-1210): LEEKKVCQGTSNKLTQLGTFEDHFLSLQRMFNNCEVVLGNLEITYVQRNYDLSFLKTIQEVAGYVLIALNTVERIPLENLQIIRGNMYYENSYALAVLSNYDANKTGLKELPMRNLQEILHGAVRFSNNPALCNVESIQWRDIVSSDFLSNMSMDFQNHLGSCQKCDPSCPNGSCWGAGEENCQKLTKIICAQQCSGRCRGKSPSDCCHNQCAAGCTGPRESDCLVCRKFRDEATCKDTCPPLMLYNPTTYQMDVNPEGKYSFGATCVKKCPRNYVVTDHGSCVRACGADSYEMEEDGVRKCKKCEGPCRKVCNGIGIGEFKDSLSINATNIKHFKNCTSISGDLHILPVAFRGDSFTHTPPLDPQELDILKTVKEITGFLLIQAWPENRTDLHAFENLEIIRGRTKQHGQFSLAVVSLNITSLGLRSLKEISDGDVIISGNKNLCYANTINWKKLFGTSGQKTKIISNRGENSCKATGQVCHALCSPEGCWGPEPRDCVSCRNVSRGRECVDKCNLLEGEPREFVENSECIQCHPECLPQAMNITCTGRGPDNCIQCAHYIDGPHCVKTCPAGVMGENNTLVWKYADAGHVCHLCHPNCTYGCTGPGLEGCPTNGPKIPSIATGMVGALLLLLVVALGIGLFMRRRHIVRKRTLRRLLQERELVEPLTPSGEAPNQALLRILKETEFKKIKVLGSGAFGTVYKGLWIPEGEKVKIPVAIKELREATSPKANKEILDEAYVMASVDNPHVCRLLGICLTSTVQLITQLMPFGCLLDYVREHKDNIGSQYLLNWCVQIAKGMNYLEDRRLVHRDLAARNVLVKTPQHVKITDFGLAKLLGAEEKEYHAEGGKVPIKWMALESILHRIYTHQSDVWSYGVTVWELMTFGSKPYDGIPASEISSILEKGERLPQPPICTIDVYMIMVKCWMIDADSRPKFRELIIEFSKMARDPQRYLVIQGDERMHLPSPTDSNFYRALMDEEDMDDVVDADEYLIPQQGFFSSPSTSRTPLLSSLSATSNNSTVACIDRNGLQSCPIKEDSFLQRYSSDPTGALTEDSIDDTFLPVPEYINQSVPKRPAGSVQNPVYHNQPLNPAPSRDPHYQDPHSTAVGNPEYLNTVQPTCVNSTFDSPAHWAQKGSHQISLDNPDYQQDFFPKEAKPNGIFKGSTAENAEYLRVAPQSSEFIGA
The test can be described thus: Enzymatic assay EGFR WT (method c). The test is classed as biochemical. The note with it: [EGFR WT]=2 nM, [ATP]=1 mM, [Peptide 22]=1 μM. Summed up: as §1

T1 sequence (P04626 23-1255): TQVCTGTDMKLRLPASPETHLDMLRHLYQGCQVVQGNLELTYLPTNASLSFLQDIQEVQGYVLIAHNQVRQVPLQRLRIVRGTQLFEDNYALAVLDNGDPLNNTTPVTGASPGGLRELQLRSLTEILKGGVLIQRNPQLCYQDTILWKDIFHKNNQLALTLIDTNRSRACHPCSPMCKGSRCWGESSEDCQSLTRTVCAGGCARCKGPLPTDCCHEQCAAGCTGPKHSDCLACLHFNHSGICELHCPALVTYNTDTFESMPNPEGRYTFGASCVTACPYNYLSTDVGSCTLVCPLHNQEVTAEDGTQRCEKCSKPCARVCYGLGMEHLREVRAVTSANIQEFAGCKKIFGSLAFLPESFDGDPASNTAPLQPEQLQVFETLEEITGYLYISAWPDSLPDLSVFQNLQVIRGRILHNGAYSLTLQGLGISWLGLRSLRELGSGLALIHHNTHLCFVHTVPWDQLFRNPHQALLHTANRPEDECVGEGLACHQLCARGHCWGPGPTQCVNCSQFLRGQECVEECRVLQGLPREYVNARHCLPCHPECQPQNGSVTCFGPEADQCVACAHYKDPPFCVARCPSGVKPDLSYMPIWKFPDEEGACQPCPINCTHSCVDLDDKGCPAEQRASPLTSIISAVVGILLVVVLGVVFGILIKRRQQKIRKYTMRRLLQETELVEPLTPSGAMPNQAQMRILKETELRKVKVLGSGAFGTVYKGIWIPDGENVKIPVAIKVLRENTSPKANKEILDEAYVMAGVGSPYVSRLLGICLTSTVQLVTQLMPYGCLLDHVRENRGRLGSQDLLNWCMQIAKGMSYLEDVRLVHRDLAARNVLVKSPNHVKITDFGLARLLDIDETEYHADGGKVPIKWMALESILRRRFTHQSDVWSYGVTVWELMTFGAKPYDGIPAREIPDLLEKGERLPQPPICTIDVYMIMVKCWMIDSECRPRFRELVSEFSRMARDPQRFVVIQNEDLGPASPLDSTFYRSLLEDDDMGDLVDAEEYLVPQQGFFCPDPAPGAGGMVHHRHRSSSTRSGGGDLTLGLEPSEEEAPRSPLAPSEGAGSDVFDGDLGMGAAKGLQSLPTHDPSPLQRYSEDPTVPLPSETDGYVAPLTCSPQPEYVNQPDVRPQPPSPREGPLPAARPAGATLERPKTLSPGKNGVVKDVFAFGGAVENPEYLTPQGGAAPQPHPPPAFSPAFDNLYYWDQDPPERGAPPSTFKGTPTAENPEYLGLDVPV

What is called IC50 is the concentration that gives 50% inhibition. Higher therefore signals weaker potency. For the compound `Cc1ccc(Oc2ccc(Nc3ncnc4sc5c(c34)CCN(C(=O)/C=C/CN3CC(O)CO3)C5)cc2C)cn1` (stereo not drawn) [Compound 43], the IC50 against HER2 WT is 100 to 1000 nM; against EGFR WT, above 10000 nM.
The corresponding values for `Cc1ccc(Oc2ccc(Nc3ncnc4sc5c(c34)CCN(C(=O)/C=C/CNCc3cc(C)n[nH]3)C5)cc2C)cn1` [Compound 49] are below 100 nM and 1000 to 10000 nM.
The corresponding values for `Cc1ccc(Oc2ccc(Nc3ncnc4sc5c(c34)CCN(C(=O)/C=C/CNC3CCC3)C5)cc2C)cn1` [Compound 54] are below 100 nM and above 10000 nM.
Regarding `Cc1cc(Nc2ncnc3sc4c(c23)CCN(C(=O)/C=C/CN2CC3CCC(C3)C2)C4)ccc1Oc1ccc2ncnn2c1` [Compound 20], the IC50 on HER2 WT was below 100 nM; at EGFR WT, 1000 to 10000 nM.
The matching figures for `Cc1ccc(Oc2ccc(Nc3ncnc4sc5c(c34)CCN(C(=O)/C=C/CN3CCCOCC3)C5)cc2C)cn1` [Compound 42]: below 100 nM and above 10000 nM.
The corresponding values for `Cc1cc(Nc2ncnc3sc4c(c23)CCN(C(=O)/C=C/CN(C)C(C)(C)C)C4)ccc1Oc1ccc2ncnn2c1` [Compound 80] are below 100 nM and above 10000 nM.
The corresponding values for `Cc1ccc(Oc2ccc(Nc3ncnc4[nH]c5c(c34)CN(C(=O)/C=C/CN(C)C)CC5)cc2C)cn1` [Compound 97, (E)-4-(dimethylamino)-1-(4-((3-methyl-4-((6-methylpyridin-3-yl)oxy)phenyl)amino)-5,7,8,9-tetrahydro-6H-pyrido[3′,4′:4,5]pyrrolo[2,3-d]pyrimidin-6-yl)but-2-en-1-one] are below 100 nM and above 10000 nM.
For the compound `C=C(CN1CCc2c(sc3ncnc(Nc4ccc(Oc5ccc(C)nc5)c(C)c4)c23)C1)C(=O)OCC` [Compound 86, Ethyl 2-((4-((3-methyl-4-((6-methylpyridin-3-yl)oxy)phenyl)amino)-5,8-dihydropyrido[4′,3′:4,5]thieno[2,3-d]pyrimidin-7(6H)-yl)methyl)acrylate], the values for the 50% inhibitory concentration (IC50) at HER2 WT and against EGFR WT were 100 to 1000 nM and above 10000 nM, respectively.
The matching figures for `Cc1ccc(Oc2ccc(Nc3ncnc4sc5c(c34)CCN(C(=O)/C=C/CNCC3CN(C)CCO3)C5)cc2C)cn1` (stereo not drawn) [Compound 48]: below 100 nM and above 10000 nM.
As for `Cc1ccc(Oc2ccc(Nc3ncnc4sc5c(c34)C(C)CN(C(=O)C=CCN(C)C)C5)cc2C)cn1` (single isomer, unassigned) [Compound 106], the IC50 at HER2 WT was below 100 nM; at EGFR WT, above 10000 nM.
The corresponding values for `Cc1ccc(Oc2ccc(Nc3ncnc4sc5c(c34)CCCN(C(=O)/C=C/CN(C)C)C5)cc2C)cn1` [Compound 101, (E)-4-(Dimethylamino)-1-(4-((3-methyl-4-((6-methylpyridin-3-yl)oxy)phenyl)amino)-6,7-dihydro-5H-pyrimido[5′,4′:4,5]thieno[2,3-c]azepin-8(9H)-yl)but-2-en-1-one] are below 100 nM and above 10000 nM.
The matching figures for `Cc1ccc(Oc2ccc(Nc3ncnc4sc5c(c34)CCN(C(=O)/C=C/CN(C)C)CC5)cc2C)cn1` [Compound 100, (E)-4-(dimethylamino)-1-(4-((3-methyl-4-((6-methylpyridin-3-yl)oxy)phenyl)amino)-8,9-dihydro-5H-pyrimido[5′,4′:4,5]thieno[2,3-d]azepin-7(6H)-yl)but-2-en-1-one]: 100 to 1000 nM and above 10000 nM.
The matching figures for `CC(=O)N1CCN(C/C=C/C(=O)N2CCc3c(sc4ncnc(Nc5ccc(Oc6ccc(C)nc6)c(C)c5)c34)C2)CC1` [Compound 51]: below 100 nM and above 10000 nM.
Regarding `O=C(/C=C/CN1CC2CC(C2)C1)N1CCc2c(sc3ncnc(Nc4ccc(Oc5ccc6ncnn6c5)c(Cl)c4)c23)C1` [Compound 85], the IC50 against HER2 WT is below 100 nM; against EGFR WT, 1000 to 10000 nM.
The corresponding values for `Cc1cc(Nc2ncnc3sc4c(c23)CCN(C(=O)/C=C/CN2CC3CC2CO3)C4)ccc1Oc1ccc2ncnn2c1` (stereo not drawn) [Compound 77] are 100 to 1000 nM and above 10000 nM.
The corresponding values for `Cc1ccc(Oc2ccc(Nc3ncnc4sc5c(c34)C(C)CN(C(=O)C=CCN(C)C)C5)cc2C)cn1` (single isomer, unassigned) [Compound 105] are below 100 nM and above 10000 nM.
The corresponding values for `Cc1ccc(Oc2ccc(Nc3ncnc4sc5c(c34)CCN(C(=O)/C=C/CN3CC4CC3CO4)C5)cc2C)cn1` (stereo not drawn) [Compound 26] are below 100 nM and above 10000 nM.
In the case of `COCCN1CCN(C/C=C/C(=O)N2CCc3c(sc4ncnc(Nc5ccc(Oc6ccc(C)nc6)c(C)c5)c34)C2)CC1` [Compound 59], the IC50 is below 100 nM at HER2 WT and above 10000 nM against EGFR WT.
The matching figures for `Cc1ccc(Oc2ccc(Nc3ncnc4sc5c(c34)CCN(C(=O)/C=C/CN(CCO)CCO)C5)cc2C)cn1` [Compound 37]: below 100 nM and 1000 to 10000 nM.
The matching figures for `Cc1cc(Nc2ncnc3sc4c(c23)CN(C(=O)/C=C/CN(C)C)CC4)ccc1Oc1ccc2ncnn2c1` [Compound 103, (E)-1-(4-((4-([1,2,4]triazolo[1,5-a]pyridin-6-yloxy)-3-methylphenyl)amino)-7,8-dihydropyrido[3′,4′:4,5]thieno[2,3-d]pyrimidin-6(5H)-yl)-4-(dimethylamino)but-2-en-1-one]: 100 to 1000 nM and above 10000 nM.
Regarding `CN(C/C=C/C(=O)N1CCc2c(sc3ncnc(Nc4ccc(Oc5ccc6ncnn6c5)c(Cl)c4)c23)C1)C(C)(C)C` [Compound 91], the IC50 against HER2 WT was below 100 nM; against EGFR WT, above 10000 nM.
